Measured values taken from patent US20230391765A1, “HETEROBIFUNCTIONAL COMPOUNDS AS DEGRADERS OF ENL” (ICAHN SCHOOL OF MEDICINE AT MOUNT SINAI, priority 2020, published 2023).

Columns and labels:
[1] = test system: ENL-dependent MV4; 11 cells; test: Cell viability (CellTiter-Glo), MV4; 11 cells; format: cell-based; conditions: 11 cells, 0.5, 1, 2 and 4 μM for 72 h
Method in brief: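 MV4;11 cells (ENL-dependent) were seeded at 2×10^5 cells/mL and exposed to compound or DMSO, mostly for 72 h, with some runs at 3 or 6 days. Concentrations ranged from 10 nM to 10 μM depending on the run. Viability was read by CellTiter-Glo luminescence and normalized to DMSO.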

ENL target genes = test: RT-qPCR of ENL target genes in MOLM13 cells; format: cell-based
Protocol: MOLM13 cells were treated with LQ076-122 (FIG. 14A) and LQ081-108 (FIG. 14B) at 0.5, 1, 2, 4, and 8 μM for 24 h. […] RT-qPCR analysis was performed to detect the mRNA levels of selected ENL target genes.
Total RNA was extracted using the RNeasy Plus kit (Qiagen) and reverse-transcribed using the iScript cDNA Synthesis kit (Bio-Rad). RT-qPCR was performed using the Power SYBR Green PCR Master Mix (Applied Biosystems) on the CFX96 Real-Time PCR system (Bio-Rad). Gene expressions were calculated following normalization to 18s rRNA amounts using the comparative cycle threshold (Ct) method.

[2] = test system: ENL-dependent MOLM13 leukemia cells; test: Cell viability (CellTiter-Glo), MOLM13 cells; format: cell-based; conditions: MOLM13 cells, 0.5, 1, 2 and 4 μM for 72 h
Protocol: (§1) MV4; 11 (FIG. 13A), MOLM13 (FIG. 13B) and Jurkat (FIG. 13C) cells were seeded at 2×10^5 cells/mL density and treated with DMSO or indicated compounds 0.5, 1, 2 and 4 μM for 72 h. Cell viability was measured using CellTiter-Glo reagent (Promega) and relative cell viability was calculated by normalization to DMSO samples.
MV4; 11 or MOLM13 cells were seeded at 0.2×10^6 cells/mL density. Cells were treated with DMSO or ENL degraders at indicated concentrations. Each treatment was done in triplicates. After 72 h treatment, 100 μL of cell suspension from each treatment was mixed with 25 μL of CellTiter-Glo reagent (Promega) and incubated for 10 min before the luminescence signals were detected on a plate reader.

ENL [3] = target: T1, ENL (Homo sapiens, UniProt Q03111); test: Western blot of ENL protein levels in MV4; 11 cells; format: cell-based
T1 construct: Cells were lysed and expression of endogenous ENL was assessed by Western blot analysis; host or cells: MV4;11
T1 sequence (Q03111 1-559): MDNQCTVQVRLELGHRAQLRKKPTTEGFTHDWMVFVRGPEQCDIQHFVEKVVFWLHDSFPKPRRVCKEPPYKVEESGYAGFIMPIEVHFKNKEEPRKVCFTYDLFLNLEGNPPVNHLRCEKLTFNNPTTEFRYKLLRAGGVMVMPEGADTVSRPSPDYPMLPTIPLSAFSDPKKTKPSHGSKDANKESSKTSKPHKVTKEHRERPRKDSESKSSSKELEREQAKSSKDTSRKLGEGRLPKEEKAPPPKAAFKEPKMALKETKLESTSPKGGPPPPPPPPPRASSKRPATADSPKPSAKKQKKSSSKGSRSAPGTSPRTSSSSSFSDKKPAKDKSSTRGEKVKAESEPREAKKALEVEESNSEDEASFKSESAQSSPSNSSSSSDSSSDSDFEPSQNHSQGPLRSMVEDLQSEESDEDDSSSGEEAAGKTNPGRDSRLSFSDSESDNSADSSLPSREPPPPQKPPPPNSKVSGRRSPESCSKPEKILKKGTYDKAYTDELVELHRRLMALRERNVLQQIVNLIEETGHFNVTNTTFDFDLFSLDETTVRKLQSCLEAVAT
Method in brief: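 MV4;11 cells treated versus DMSO at 1 and 10 μM for 24 h or 6 h, or at 0.3-30 μM for 24 h; time course at 4 μM over 12-36 h. Proteasome dependence tested with 1 μM degrader ± 1 μM MG132 for 6 h. ENL (and GAS41) levels in total lysates assessed by Western blot with GAPDH/β-actin loading controls.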

[4] = test system: ENL-independent Jurkat cells; test: Cell viability (CellTiter-Glo), Jurkat cells; format: cell-based; conditions: Jurkat cells, 0.5, 1, 2 and 4 μM for 72 h
Protocol: as §1
ENL-dependent MV4; 11 and ENL-independent Jurkat cells were seeded at 2×10^5 cells/mL density and treated with DMSO or indicated compounds at 10 nM, 100 nM, 1 μM and 10 μM for 3 days (A) or 6 days (B). Cell viability was measured using CellTiter-Glo reagent (Promega) and relative cell viability was calculated by normalization to DMSO samples.

ENL [5] = target: T1, ENL; test: Western blot of ENL protein levels in MOLM13 cells; format: cell-based; conditions: 0-8 μM for 24 h
Method in brief: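 Leukemia cells (MOLM13, MV4;11, Jurkat) treated with degraders in DMSO at 0–10 μM for 6 h or 24 h, or at 4 μM (MV4;11) / 8 μM (MOLM13) over 12–36 h. ENL levels read by Western blot of total lysates, GAPDH/β-actin loading controls; DMSO vehicle control.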

MV4; 11 cells = test: Apoptosis assay (FITC Annexin V), MV4; 11 cells; format: cell-based; conditions: 11 cells, 1, 2 and 4 μM for 24 h
Protocol: (§2) Apoptotic cells were measured by the FITC Annexin V Apoptosis Detection Kit (BD Biosciences).
(§3) MV4; 11 or MOLM13 cells were seeded at 0.2×10^6 cells/mL density. Cells were treated with DMSO or ENL degraders at indicated concentrations. Each treatment was done in triplicates. After 24 h treatment, cells were collected and washed with ice-cold PBS once and resuspended in 250 μL of 1× binding buffer containing 5 μL of FITC-Annexin V and PI (BD Biosciences). After 15 min incubation at room temperature in the dark, 250 μL of 1× binding buffer was added and flow cytometry analysis was performed.

[6] = test system: ENL-dependent MLL-rearranged leukemia cells; conditions: cited from earlier work
MOLM13 cells = test: Apoptosis assay (FITC Annexin V), MOLM13 cells; format: cell-based; conditions: MOLM13 cells, 1, 2 and 4 μM for 24 h
Protocol: as §2, §3

[7] = 11 cells, 0.3, 1, 3 and 10 μM for 12 and 24 h

SMILES: Cc1ncsc1-c1ccc([C@H](C)NC(=O)[C@H]2C[C@H](O)CN2C(=O)[C@@H](NC(=O)CCCCCCCCCCNC(=O)c2ccc(C(=O)Nc3ccc4[nH]c(CN5CCC[C@@H]5C)nc4c3)cc2)C(C)(C)C)cc1 [LQ081-106]
- suppression of cell growth (relative cell viability) [1]: did not significantly affect cell growth
- ENL target gene expression (mRNA levels) (ENL target genes; MOLM13 cells, 8 μM for 24 h): did not dramatically affect these genes
- suppression of cell growth (relative cell viability) [2]: did not significantly affect cell growth
- reduction of ENL protein levels (ENL [3]; [7]): did not affect ENL protein levels
- suppression of cell growth (relative cell viability) [4]: did not significantly affect cell growth

SMILES: Cc1ncsc1-c1ccc([C@H](C)NC(=O)[C@@H]2C[C@@H](O)CN2C(=O)[C@@H](NC(=O)CCCCCCCCCCNC(=O)c2ccc(C(=O)Nc3ccc4[nH]c(CN5CCC[C@@H]5C)nc4c3)cc2)C(C)(C)C)cc1 [LQ081-108, N^1-(11-(((S)-1-((2S,4R)-4-hydroxy-2-(((S)-1-(4-(4-methylthiazol-5-yl)phenyl)ethyl)carbamoyl)pyrrolidin-1-yl)-3,3-dimethyl-1-oxobutan-2-yl)amino)-11-oxoundecyl)-N^4-(2-(((S)-2-methylpyrrolidin-1-yl)methyl)-1H-benzo[d]imidazol-5-yl)terephthalamide]
- suppression of cell growth (relative cell viability) [1]: selectively suppressed cell growth
- ENL target gene expression (mRNA levels) (ENL target genes; MOLM13 cells, 0.5, 1, 2, 4 and 8 μM for 24 h): reduced ENL target gene expression in a concentration-dependent manner
- suppression of cell growth (relative cell viability) [2]: selectively suppressed cell growth
- reduction of ENL protein levels (ENL [3]; 11 cells, 0-8 μM for 24 h): reduced ENL protein levels in a concentration-dependent manner
- reduction of ENL protein levels (ENL [3]; 11 cells, 10 μM, 24 h): effective in reducing ENL protein levels
- reduction of ENL protein levels (ENL [3]; [7]): reduced ENL protein levels in a concentration- and time-dependent manner
- reduction of ENL protein levels (ENL [5]): reduced ENL protein levels in a concentration-dependent manner

SMILES: C[C@H]1CCCN1Cc1nc2cc(NC(=O)c3ccc4c(cnn4C)c3)ccc2[nH]1 [SGC-iMLLT, reference compound]
- induction of apoptosis (MV4; 11 cells): but not the negative control compound LQ108-4 or SGC-iMLLT, induced apoptosis
- inhibition of cell growth [6]: largely ineffective in inhibiting the growth
- ENL target gene expression (mRNA levels) (ENL target genes; MOLM13 cells, 8 μM for 24 h): did not dramatically affect these genes
- induction of apoptosis (MOLM13 cells): but not the negative control compound LQ108-4 or SGC-iMLLT, induced apoptosis
